Consider 25 compounds from patent US10202375B2, “N-pyridinyl acetamide derivatives as Wnt signalling pathway inhibitors” (Redx Pharma PLC, priority 2014, dated 2019).

Where only a bound is given, the exact number is not on record here.

For the first experiment, the system named is Wnt pathway (L-Wnt cells producing murine Wnt-3a; Leading Light Wnt Reporter Cells). The experiment in a line: Dual-Cell β-Catenin Reporter Assay. The settings on record: Mus musculus, luciferase signal reduced to 50% of DMSO control; category symbols. In kind it is cell-based, Mouse. As for the experimental part: Dual-Cell β-Catenin Reporter Assay
Mouse L cells transfected to constitutively produce biologically active murine Wnt-3a, referred to as L-Wnt cells, were purchased from the American Type Culture Collection, ATCC, Manassas, Va. (ATCC). These cells were cultured in DMEM supplemented with 10% FCS (Gibco/Invitrogen, Carlsbad, Calif.), 1% geneticin and 1% sodium pyruvate (Sigma) at 37° C. with 5% CO2. The cells were seeded into 96 well plates and treated with serial dilutions of compound diluted to 0.1% DMSO concentration. After 24 hours, cell supernatants were transferred to a 96 well plate previously seeded with Leading Light® Wnt Reporter Cells, stably transfected with a luciferase gene under control of Wnt pathway response elements. After a further 24 hours, cells are treated with One-glo luciferase assay system (Promega, Madison, Wis.) and the luminescent signal read by envision.
A general note: Reporter assays use an easily measured gene product as a stand-in for the process of interest.
Consider `Cc1cc(-c2c(F)cnc3c2ccn3CC(=O)Nc2ccc(-c3cnccn3)cn2)ccn1` [ID No. 2, 2-[5-fluoro-4-(2-methyl-4-pyridyl)pyrrolo[2,3-b]pyridin-1-yl]-N-(5-pyrazin-2-yl-2-pyridyl)acetamide], for which the half-maximal inhibitory concentration (IC50) (in general, the concentration that inhibits the measured activity by half) was under 1 nM. The same measure, in the same setting: under `Cc1cc(-c2ccnc3c2ccn3CC(=O)Nc2ccc(-c3cnccn3)nc2)ccn1` [ID No. 17, 2-[4-(2-methyl-4-pyridyl)pyrrolo[2,3-b]pyridin-1-yl]-N-(6-pyrazin-2-yl-3-pyridyl)acetamide] stands under 1 nM. Same read-out and setting: with `Cc1cc(-c2ncnc3c2cnn3CC(=O)Nc2ccc(-c3cnccn3)cn2)ccn1` [ID No. 22, 2-[4-(2-methyl-4-pyridyl)pyrazolo[3,4-d]pyrimidin-1-yl]-N-(5-pyrazin-2-yl-2-pyridyl)acetamide] the figure was 1 to 5 nM; with `Cn1nccc1-c1nccc2c1ccn2CC(=O)Nc1ccc(-c2cnccn2)cn1` [compound 4, 2-[4-(2-methylpyrazol-3-yl)pyrrolo[3,2-c]pyridin-1-yl]-N-(5-pyrazin-2-yl-2-pyridyl)acetamide], 1 to 5 nM; with `Cc1cc(-c2nc(N)nc3c2ccn3CC(=O)Nc2ccc(-c3cnccn3)cn2)ccn1` [compound 8, 2-[2-amino-4-(2-methyl-4-pyridyl)pyrrolo[2,3-d]pyrimidin-7-yl]-N-(5-pyrazin-2-yl-2-pyridyl)acetamide], under 1 nM. Still for that read-out and setting: with `Cc1cc(-c2nc(Cl)nc3c2ccn3CC(=O)Nc2ccc(-c3cnccn3)cn2)ccn1` [compound 12, 2-[2-chloro-4-(2-methyl-4-pyridyl)pyrrolo[2,3-d]pyrimidin-7-yl]-N-(5-pyrazin-2-yl-2-pyridyl)acetamide] the figure was under 1 nM; with `Cc1cc(-c2ncnc3c2cc(C)n3CC(=O)Nc2ccc(-c3cnccn3)cn2)ccn1` [compound 13, 2-[6-methyl-4-(2-methyl-4-pyridyl)pyrrolo[2,3-d]pyrimidin-7-yl]-N-(5-pyrazin-2-yl-2-pyridyl)acetamide], over 5 nM; with `Cc1cc(-c2ncnc3c2cnn3CC(=O)Nc2ccc(-c3cnccn3)nc2)ccn1` [compound 14, 2-[4-(2-methyl-4-pyridyl)pyrazolo[3,4-d]pyrimidin-1-yl]-N-(6-pyrazin-2-yl-3-pyridyl)acetamide], 1 to 5 nM. `Cc1cc(-c2ncnc3c2ccn3CC(=O)Nc2ccc(-c3cnccn3)nc2)ccn1` [compound 16, 2-[4-(2-methyl-4-pyridyl)pyrrolo[2,3-d]pyrimidin-7-yl]-N-(6-pyrazin-2-yl-3-pyridyl)acetamide] yielded an IC50 of over 5 nM. On the same count and under the same terms, with `Cn1nccc1-c1ncnc2c1ccn2CC(=O)Nc1ccc(-c2cnccn2)cn1` [compound 18, 2-[4-(2-methylpyrazol-3-yl)pyrrolo[2,3-d]pyrimidin-7-yl]-N-(5-pyrazin-2-yl-2-pyridyl)acetamide] the figure was 1 to 5 nM; with `O=C(Cn1ccc2c(-c3ccnc(C(F)(F)F)c3)ncnc21)Nc1ccc(-c2cnccn2)cn1` [compound 21, N-(5-pyrazin-2-yl-2-pyridyl)-2-[4-[2-(trifluoromethyl)-4-pyridyl]pyrrolo[2,3-d]pyrimidin-7-yl]acetamide], under 1 nM. Still for that read-out and setting: with `Cc1cc(-c2nccc3c2ccn3CC(=O)Nc2ccc(-c3cnccn3)cn2)ccn1` [compound 23, 2-[4-(2-methyl-4-pyridyl)pyrrolo[3,2-c]pyridin-1-yl]-N-(5-pyrazin-2-yl-2-pyridyl)acetamide] the figure was under 1 nM; with `Cc1cc(-c2cncc3c2ccn3CC(=O)Nc2ccc(-c3cnccn3)cn2)ccn1` [compound 24, 2-[4-(2-methyl-4-pyridyl)pyrrolo[2,3-c]pyridin-1-yl]-N-(5-pyrazin-2-yl-2-pyridyl)acetamide], under 1 nM; with `Cc1cc(-c2ccnc3c2cnn3CC(=O)Nc2ccc(-c3cnccn3)cn2)ccn1` [compound 25, 2-[4-(2-methyl-4-pyridyl)pyrazolo[3,4-b]pyridin-1-yl]-N-(5-pyrazin-2-yl-2-pyridyl)acetamide], under 1 nM. Same read-out and setting: under `Cn1nccc1-c1ccnc2c1ccn2CC(=O)Nc1ccc(-c2cnccn2)cn1` [compound 31, 2-[4-(2-methylpyrazol-3-yl)pyrrolo[2,3-b]pyridin-1-yl]-N-(5-pyrazin-2-yl-2-pyridyl)acetamide] stands under 1 nM.

Staying with this experiment, now noted: Mus musculus, luciferase signal reduced to 50% of DMSO control; specific values.
Compound `Cc1cc(-c2nccc3c2ccn3CC(=O)Nc2ccc(-c3cnccn3)cn2)ccn1` [compound 23, 2-[4-(2-methyl-4-pyridyl)pyrrolo[3,2-c]pyridin-1-yl]-N-(5-pyrazin-2-yl-2-pyridyl)acetamide] had an IC50 of 0.43 nM. Same read-out and setting: with `Cn1nccc1-c1ccnc2c1ccn2CC(=O)Nc1ccc(-c2cnccn2)cn1` [compound 31, 2-[4-(2-methylpyrazol-3-yl)pyrrolo[2,3-b]pyridin-1-yl]-N-(5-pyrazin-2-yl-2-pyridyl)acetamide] the figure was 0.89 nM.

The same experiment, now with this note: luciferase signal reduced to 50% of DMSO control; category symbols.
“2-[4-(2-methyl-4-pyridyl)imidazo[4,5-c]pyridin-1-yl]-N-(5-pyrazin-2-yl-2-pyridyl)acetamide [compound 20]” yielded an IC50 of 1 to 5 nM. The same measure, in the same setting: under “2-[4-(2-methyl-4-pyridyl)pyrazolo[3,4-b]pyridin-1-yl]-N-(6-pyrazin-2-yl-3-pyridyl)acetamide [compound 15]” stands 1 to 5 nM. Still for that read-out and setting: under “2-[5-methyl-4-(2-methyl-4-pyridyl)pyrrolo[2,3-b]pyridin-1-yl]-N-(5-pyrazin-2-yl-2-pyridyl)acetamide [ID No. 1]” stands under 1 nM; under “2-[6-methyl-4-(2-methyl-4-pyridyl)pyrrolo[2,3-d]pyrimidin-7-yl]-N-(5-pyrazin-2-yl-2-pyridyl)acetamide [ID No. 13]”, under 1 nM; under `Cn1nccc1-c1ccnc2c1cnn2CC(=O)Nc1ccc(-c2cnccn2)cn1` [compound 6, 2-[4-(2-methylpyrazol-3-yl)pyrazolo[3,4-b]pyridin-1-yl]-N-(5-pyrazin-2-yl-2-pyridyl)acetamide], over 5 nM. As for `Cc1cc(-c2ccnc3c2ccn3CC(=O)Nc2ccc(-c3cnccn3)nc2)ccn1` [compound 17, 2-[4-(2-methyl-4-pyridyl)pyrrolo[2,3-b]pyridin-1-yl]-N-(6-pyrazin-2-yl-3-pyridyl)acetamide], the IC50 lay in the range of 1 to 5 nM. Turning to `Cc1cc(-c2ncnc3c2ncn3CC(=O)Nc2ccc(-c3cnccn3)cn2)ccn1` [compound 19, 2-[6-(2-methyl-4-pyridyl)purin-9-yl]-N-(5-pyrazin-2-yl-2-pyridyl)acetamide], the half-maximal inhibitory concentration (IC50) was over 5 nM. In the case of `Cc1cc(-c2ncnc3c2cnn3CC(=O)Nc2ccc(-c3cnccn3)cn2)ccn1` [compound 22, 2-[4-(2-methyl-4-pyridyl)pyrazolo[3,4-d]pyrimidin-1-yl]-N-(5-pyrazin-2-yl-2-pyridyl)acetamide], the IC50 is under 1 nM. `CN1CCN(c2ccnc3c2ccn3CC(=O)Nc2ccc(-c3cnccn3)cn2)CC1` [compound 28, 2-[4-(4-methylpiperazin-1-yl)pyrrolo[2,3-b]pyridin-1-yl]-N-(5-pyrazin-2-yl-2-pyridyl)acetamide] yielded an IC50 of over 5 nM. With `CC1CN(c2ccnc3c2ccn3CC(=O)Nc2ccc(-c3cnccn3)cn2)CC(C)N1` (stereo not shown) [compound 29, 2-[4-(3,5-dimethylpiperazin-1-yl)pyrrolo[2,3-b]pyridin-1-yl]-N-(5-pyrazin-2-yl-2-pyridyl)acetamide], the IC50 was over 5 nM.

The same experiment, now with this note: luciferase signal reduced to 50% of DMSO control; specific values.
“2-[5-methyl-4-(2-methyl-4-pyridyl)pyrrolo[2,3-b]pyridin-1-yl]-N-(5-pyrazin-2-yl-2-pyridyl)acetamide [ID No. 1]” displayed an IC50 of 0.32 nM.
